In US8785488B2 (Exelixis Patent Company LLC, priority 2009, dated 2014):
Read-outs that look alike come from different tables or passages of the source.

What was measured:
[1] = molecular target: T1, h-TGR5 (Homo sapiens, UniProt Q8TDU6); test: TGR5 cAMP Assay using Cisbio cAMP Dynamic2 htrf kit (hTGR5CRE-luc HEK 293 cells); format: cell-based; settings: h-TGR5 cAMP EC50, Table 1; read-out: cAMP (EC50)
T1 construct: expressed in transfected cells
T1 sequence (Q8TDU6 1-330): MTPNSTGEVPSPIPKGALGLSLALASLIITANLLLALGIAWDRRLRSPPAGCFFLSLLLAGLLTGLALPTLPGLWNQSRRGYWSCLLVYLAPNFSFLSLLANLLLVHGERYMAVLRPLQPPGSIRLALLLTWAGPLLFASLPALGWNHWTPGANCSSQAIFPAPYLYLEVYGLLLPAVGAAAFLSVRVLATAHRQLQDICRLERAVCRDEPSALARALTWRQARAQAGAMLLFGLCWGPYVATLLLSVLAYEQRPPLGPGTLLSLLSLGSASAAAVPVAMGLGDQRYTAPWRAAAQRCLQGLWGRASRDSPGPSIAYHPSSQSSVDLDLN
Protocol: Compounds were diluted in DPBS with 5% DMSO (8-point serial dilution by half logs) in a 96-well plate and 1 μL was transferred to a 384-well assay plate in quadruplicate. The d2-cAMP and anti-cAMP Ab-cryptate stock solution were prepared as per the instructions in the Cisbio™ (Bedford, Mass.) kit. […] Cells were adjusted to 0.44×10^6 cells/ml followed by addition of IBMX to a final concentration of 0.5 mM. The cells were then mixed with d2-cAMP solution (7.1 mL cells+100 ul d2-cAMP) and 4000 cells (9 μL) were transferred to each well of the 384-well assay plate. Cells without d2-cAMP were added to eight wells as a negative control. The plate was covered and incubated at room temp for 30 min. Then 10 μL of Ab-cryptate solution was added to each well of the assay plate and incubated for 1 hr. The plate was read on an EnVision™ plate reader (Perkin-Elmer, Waltham, Mass.) and the DeltaF value was calculated as per the instructions in the Cisbio™ kit.
In the following tables, EC50 values determined according to the TGR5 cAMP Assay described herein (cAMP); EC50 values determined according to the TGR5/CRE-Luciferiase Assay described herein (CRE-Luc). […] The following compounds in Tables 1 and 2 were made by using procedures described in the above Schemes and Examples, and, where applicable, by making any necessary substitutions of known materials that one skilled in the art would ordinarily understand how to do.

[2] = molecular target: T2, human TGR5 (h-TGR5) (Homo sapiens, UniProt Q8TDU6); test: TGR5/CRE-Luciferiase Assay (HEK 293 hTGR5/CRE-Luc cells); format: cell-based
T2 construct: expressed in transfected cells
T2 sequence (Q8TDU6 1-330): T1 sequence (Q8TDU6 1-330)
In short: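 HEK293 cells stably carrying hTGR5 and a CRE-luciferase reporter were exposed to serially diluted compounds (diluted in DMEM with 5% DMSO) for 6 h. Cells were then lysed in luciferase buffer, luminescence was read, and EC50 values were derived from dose-response curves.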

[3] = h-TGR5 CRE-Luc EC50, Table 1, read-out: CRE-Luc (EC50)
[4] = HEK 293 hTGR5/CRE-Luc cells, 6 hours incubation, luciferase activity, Table 2, read-out: h-TGR5CRE-Luc EC50 (CRE-Luc)

Compound	EC50 [1]	EC50 [2, 3]	further results
CC(C)(c1ccc(S(C)(=O)=O)cc1)c1cnc(SCc2ccc(Cl)c(-c3nnn[nH]3)c2)n1-c1ccc(F)c(F)c1 [5-[2-chloro-5-({[1-(3,4-difluorophenyl)-5-{1-methyl-1-[4-(methylsulfonyl)phenyl]ethyl}-1H-imidazol-2-yl]thio}methyl)phenyl]-1H-tetrazole]	1000 to 10000 nM		
CC(C)(c1ccc(S(C)(=O)=O)cc1)c1cnc(SCc2ccc(S(=O)(=O)NC(=O)NN3CCCC3)cc2Cl)n1-c1ccc(F)c(F)c1 [3-chloro-4-({[1-(3,4-difluorophenyl)-5-{1-methyl-1-[4-(methylsulfonyl)phenyl]ethyl}-1H-imidazol-2-yl]thio}methyl)-N-[(pyrrolidin-1-ylamino)carbonyl]benzenesulfonamide]	1000 to 10000 nM		
Cc1cc(-n2c(C(C)(C)c3ccc(F)cc3)cnc2SCc2ccc(S(=O)(=O)NC(=O)NN3CCCC3)cc2Cl)ccc1F [3-chloro-4-[({1-(4-fluoro-3-methylphenyl)-5-[1-(4-fluorophenyl)-1-methylethyl]-1H-imidazol-2-yl}thio)methyl]-N-[(pyrrolidin-1-ylamino)carbonyl]benzenesulfonamide]	100 to 1000 nM		
Cc1cc(-n2c(C(C)(C)c3ccc(S(C)(=O)=O)cc3)cnc2SCc2ccc(S(=O)(=O)NC(=O)NN3CCCC3)cc2Cl)ccc1F [3-chloro-4-({[1-(4-fluoro-3-methylphenyl)-5-{1-methyl-1-[4-(methylsulfonyl)phenyl]ethyl}-1H-imidazol-2-yl]thio}methyl)-N-[(pyrrolidin-1-ylamino)carbonyl]benzenesulfonamide]	1000 to 10000 nM		
CC(C)(c1ccc(F)c(C(F)F)c1)c1cnc(SCc2ccc(S(=O)(=O)NC(=O)NN3CCCC3)cc2Cl)n1-c1ccc(F)cc1 [3-chloro-4-({[5-{1-[3-(difluoromethyl)-4-fluorophenyl]-1-methylethyl}-1-(4-fluorophenyl)-1H-imidazol-2-yl]thio}methyl)-N-[(pyrrolidin-1-ylamino)carbonyl]benzenesulfonamide]	1000 to 10000 nM		
CNS(=O)(=O)c1ccc(C(C)(C)c2cnc(SCc3ccc(S(=O)(=O)NC(=O)NN4CCCC4)cc3Cl)n2-c2ccc(F)cc2)cc1Cl [2-chloro-4-{1-[2-({[2-chloro-4-({[(pyrrolidin-1-ylamino)carbonyl]amino}sulfonyl)phenyl]methyl}thio)-1-(4-fluorophenyl)-1H-imidazol-5-yl]-1-methylethyl}-N-methylbenzenesulfonamide]	1000 to 10000 nM		
CC(C)(c1ccc(S(N)(=O)=O)cc1)c1cnc(SCc2ccc(S(=O)(=O)NC(=O)NN3CCOCC3)cc2Cl)n1-c1ccc(F)c(Cl)c1 [4-({[5-{1-[4-(aminosulfonyl)phenyl]-1-methylethyl}-1-(3-chloro-4-fluorophenyl)-1H-imidazol-2-yl]thio}methyl)-3-chloro-N-[(morpholin-4-ylamino)carbonyl]benzenesulfonamide]	1000 to 10000 nM		
COc1cc(C(C)(C)c2cnc(SCc3ccc(S(=O)(=O)NC(=O)NN4CCCC4)cc3Cl)n2-c2ncc(F)cc2F)ccc1Cl [3-chloro-4-({[5-{1-[4-chloro-3-(methyloxy)phenyl]-1-methylethyl}-1-(3,5-difluoropyridin-2-yl)-1H-imidazol-2-yl]thio}methyl)-N-[(pyrrolidin-1-ylamino)carbonyl]benzenesulfonamide]	1000 to 10000 nM		
COc1cc(C(C)(C)c2cnc(SCc3ccc(S(=O)(=O)NC(=O)NCC(=O)O)cc3Cl)n2-c2ccc(F)cc2)ccc1Cl [N-[({[3-chloro-4-({[5-{1-[4-chloro-3-(methyloxy)phenyl]-1-methylethyl}-1-(4-fluorophenyl)-1H-imidazol-2-yl]thio}methyl)phenyl]sulfonyl}amino)carbonyl]glycine]	100 to 1000 nM		
CC(C)(c1ccc(S(C)(=O)=O)cc1)c1cnc(SCc2ccc(Cl)c(-c3nnn[nH]3)c2)n1-c1ccc(F)cc1 [5-[2-chloro-5-({[1-(4-fluorophenyl)-5-{1-methyl-1-[4-(methylsulfonyl)phenyl]ethyl}-1H-imidazol-2-yl]thio}methyl)phenyl]-1H-tetrazole]	1000 to 10000 nM		
CC(C)(c1ccc2c(c1)OCCO2)c1cnc(SCc2ccc(F)cc2Cl)n1-c1ccc(F)cc1 [2-{[(2-chloro-4-fluorophenyl)methyl]thio}-5-[1-(2,3-dihydro-1,4-benzodioxin-6-yl)-1-methylethyl]-1-(4-fluorophenyl)-1H-imidazole]		< 100 nM	
CC(C)(c1ccc(Cl)c(Cl)c1)c1cnc(S(=O)(=O)C(C)(C)c2c(F)cccc2Cl)n1-c1ccc(F)cc1 [2-{[1-(2-chloro-6-fluorophenyl)-1-methylethyl]sulfonyl}-5-[1-(3,4-dichlorophenyl)-1-methylethyl]-1-(4-fluorophenyl)-1H-imidazole]		100 to 1000 nM	
Fc1ccc(-n2c(Cc3ccc(Cl)c(Cl)c3)nnc2SCc2cccc(Cl)c2F)cc1 [Example 2]			EC50 [2, 4]: 1000 to 10000 nM
CN(C)CCn1c(C(C)(C)c2ccc(Cl)c(Cl)c2)cnc1SCc1c(F)cccc1Cl [2-(2-{[(2-chloro-6-fluorophenyl)methyl]thio}-5-[1-(3,4-dichlorophenyl)-1-methylethyl]-1H-imidazol-1-yl)-N,N-dimethylethanamine]		1000 to 10000 nM	
COc1ccc(C(C)(C)c2cnc(C(=O)N(C)c3c(F)cccc3Cl)n2-c2ccc(F)cc2)cc1OC [5-{1-[3,4-bis(methyloxy)phenyl]-1-methylethyl}-N-(2-chloro-6-fluorophenyl)-1-(4-fluorophenyl)-N-methyl-1H-imidazole-2-carboxamide]		1000 to 10000 nM	
COc1ccc(C(C)(C)c2cnc(C(=O)NC3CCCCC3)n2-c2ccc(F)cc2)cc1OC [5-{1-[3,4-bis(methyloxy)phenyl]-1-methylethyl}-N-cyclohexyl-1-(4-fluorophenyl)-1H-imidazole-2-carboxamide]		1000 to 10000 nM	
CC(C)(c1ccc(Cl)c(Cl)c1)c1cnc(SCc2c(F)cc(F)cc2F)n1-c1ccc(F)cc1 [5-[1-(3,4-dichlorophenyl)-1-methylethyl]-1-(4-fluorophenyl)-2-{[(2,4,6-trifluorophenyl)methyl]thio}-1H-imidazole]		< 100 nM	
CC(C)(c1ccc2cccnc2c1)c1nnc(SCc2c(F)cc(C(=O)O)cc2F)n1-c1ccc(F)cc1 [Example 50]			EC50 [2, 4]: 1000 to 10000 nM
CC(C)(c1ccc(Cl)c(Cl)c1)c1cnc(S(=O)(=O)Cc2ccc(Cl)cc2Cl)n1-c1ccc(F)cc1 [5-[1-(3,4-dichlorophenyl)-1-methylethyl]-2-{[(2,4-dichlorophenyl)methyl]sulfonyl}-1-(4-fluorophenyl)-1H-imidazole]		1000 to 10000 nM	
CC(C)(c1ccc(Cl)c(Cl)c1)c1cnc(SCc2c(Cl)cccc2Cl)n1-c1ccc(F)cc1 [5-[1-(3,4-dichlorophenyl)-1-methylethyl]-2-{[(2,6-dichlorophenyl)methyl]thio}-1-(4-fluorophenyl)-1H-imidazole]		100 to 1000 nM	
CC(C)(c1ccc(Cl)c(Cl)c1)c1cnc(SCc2ccc(F)cc2C#N)n1-c1ccc(F)cc1 [2-[({5-[1-(3,4-dichlorophenyl)-1-methylethyl]-1-(4-fluorophenyl)-1H-imidazol-2-yl}thio)methyl]-5-fluorobenzonitrile]		100 to 1000 nM	
CC(C)(c1ccc(F)c(F)c1)c1cnc(SCc2c(F)cccc2Cl)n1-c1ccc(F)cc1 [2-{[(2-chloro-6-fluorophenyl)methyl]thio}-5-[1-(3,4-difluorophenyl)-1-methylethyl]-1-(4-fluorophenyl)-1H-imidazole]		< 100 nM	
CC(C)(c1ccc(F)c(F)c1)c1cnc(SCc2ccc(C(=O)O)cc2F)n1-c1ccc(F)cc1 [4-[({5-[1-(3,4-difluorophenyl)-1-methylethyl]-1-(4-fluorophenyl)-1H-imidazol-2-yl}thio)methyl]-3-fluorobenzoic acid]		100 to 1000 nM	
2-chloro-5-{1-[2-{(2-chloro-4- fluorophenyl)methyl]thio}-1-(4-fluorophenyl)- 1H-imidazol-5-yl]-1- methylethyl}benzenesulfonamide		100 to 1000 nM	
CC(C)(c1ccc(S(C)(=O)=O)cc1)c1cnc(SCc2ccc(S(=O)(=O)NC(=O)NN3CCCC3)cc2Cl)n1-c1ccc(F)cc1 [3-chloro-4-({[1-(4-fluorophenyl)-5-{1-methyl-1-[4-(methylsulfonyl)phenyl]ethyl}-1H-imidazol-2-yl]thio}methyl)-N-[(pyrrolidin-1-ylamino)carbonyl]benzenesulfonamide]		1000 to 10000 nM	
